Experimental data: PubChem BioAssay (NCI)
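Assay format: 96-well plates, 48-hour exposure. At the GI50, growth is halved. TGI denotes the concentration required for complete inhibition of growth.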

Assays:
Test in all cases: growth of human tumour cells (NCI), 48 h
SK-MEL-5 melanoma = system: SK-MEL-5 melanoma
MOLT-4 leukemia = system: MOLT-4 leukemia
OVCAR-3 ovarian = system: OVCAR-3 ovarian
SNB-75 CNS = system: SNB-75 CNS
IGROV1 ovarian = system: IGROV1 ovarian
HL-60(TB) leukemia = system: HL-60(TB) leukemia
NCI/ADR-RES ovarian = system: NCI/ADR-RES ovarian
HCC-2998 colon = system: HCC-2998 colon
CAKI-1 renal = system: CAKI-1 renal
A498 renal = system: A498 renal

SMILES: Cc1cc(NS(=O)(=O)c2ccc(Nc3c4ccccc4nc4c(C(=O)NCCN(C)C)ccc(Cl)c34)cc2)no1
- TGI (SK-MEL-5 melanoma): 10.1 µM
- TGI (MOLT-4 leukemia): 1.74 µM
- TGI (OVCAR-3 ovarian): 23.9 µM
- TGI (SNB-75 CNS): 11.9 µM
- TGI (IGROV1 ovarian): 20.7 µM
- TGI (HL-60(TB) leukemia): 5.58 µM

SMILES: COC(=O)C(C)N1C(=O)c2ccccc2I1OC(C)=O (stereo not drawn)
- GI50 (NCI/ADR-RES ovarian): > 100 µM
- TGI (NCI/ADR-RES ovarian): > 100 µM
- GI50 (HCC-2998 colon): 17.4 µM
- TGI (HCC-2998 colon): 38.4 µM
- GI50 (SK-MEL-5 melanoma): > 100 µM
- TGI (SK-MEL-5 melanoma): > 100 µM
- GI50 (MOLT-4 leukemia): 22 µM
- TGI (MOLT-4 leukemia): 45.7 µM
- GI50 (OVCAR-3 ovarian): 23.3 µM
- TGI (OVCAR-3 ovarian): > 100 µM
- GI50 (CAKI-1 renal): > 100 µM
- TGI (CAKI-1 renal): > 100 µM
- GI50 (SNB-75 CNS): 60.8 µM
- TGI (SNB-75 CNS): > 100 µM
- GI50 (IGROV1 ovarian): 37.2 µM
- TGI (IGROV1 ovarian): > 100 µM
- GI50 (HL-60(TB) leukemia): 47.2 µM
- TGI (HL-60(TB) leukemia): > 100 µM

SMILES: COc1cc(N=Nc2cccc(S(=O)(=O)O)c2)c(C)cc1N=Nc1ccc(/C=C/c2ccc(N=[N+]([O-])c3ccc(/C=C/c4ccc(N=Nc5cc(C)c(N=Nc6cccc(S(=O)(=O)O)c6)cc5OC)cc4)c(S(=O)(=O)O)c3)cc2S(=O)(=O)O)cc1
- TGI (NCI/ADR-RES ovarian): > 100 µM
- TGI (HCC-2998 colon): > 100 µM
- TGI (SK-MEL-5 melanoma): > 100 µM
- TGI (A498 renal): > 100 µM
- TGI (MOLT-4 leukemia): > 100 µM
- TGI (OVCAR-3 ovarian): > 100 µM
- TGI (SNB-75 CNS): > 100 µM
- TGI (IGROV1 ovarian): > 100 µM
- TGI (HL-60(TB) leukemia): > 100 µM

SMILES: O=CNc1cccc2c3c([nH]c12)CCCCCC3
- TGI (NCI/ADR-RES ovarian): > 100 µM
- TGI (HCC-2998 colon): > 100 µM
- TGI (SK-MEL-5 melanoma): > 100 µM
- TGI (A498 renal): > 100 µM
- TGI (MOLT-4 leukemia): > 100 µM
- TGI (OVCAR-3 ovarian): > 100 µM
- TGI (CAKI-1 renal): > 100 µM
- TGI (SNB-75 CNS): > 100 µM
- TGI (IGROV1 ovarian): > 100 µM
- TGI (HL-60(TB) leukemia): > 100 µM

SMILES: CCOC(=O)C1C(c2cc(OC)c(O)c(OC)c2)c2cc3c(cc2OC1(C)O)OCO3 (stereo not drawn)
- TGI (SK-MEL-5 melanoma): > 100 µM
- TGI (MOLT-4 leukemia): > 100 µM
- TGI (OVCAR-3 ovarian): > 100 µM
- TGI (CAKI-1 renal): 95.2 µM
- TGI (SNB-75 CNS): 77.9 µM
- TGI (IGROV1 ovarian): > 100 µM
- TGI (HL-60(TB) leukemia): > 100 µM

SMILES: CC(C)(C)OC(=O)NC(Cc1ccccc1)C(=O)N[C@H]1c2ccsc2/C(=N/O)[C@H]1O (stereo partly drawn)
- TGI (NCI/ADR-RES ovarian): > 100 µM
- TGI (HCC-2998 colon): > 100 µM
- TGI (SK-MEL-5 melanoma): > 100 µM
- TGI (A498 renal): > 100 µM
- TGI (MOLT-4 leukemia): > 100 µM
- TGI (OVCAR-3 ovarian): > 100 µM
- TGI (CAKI-1 renal): > 100 µM
- TGI (IGROV1 ovarian): > 100 µM
- TGI (HL-60(TB) leukemia): > 100 µM

SMILES: C=C1C(=O)O[C@H]2C1[C@H](OC(=O)/C(C)=C\COC(C)=O)C[C@]1(CO1)[C@@H]1[C@H](O)[C@H]3O[C@@]3(C)[C@@H]12 (stereo partly drawn)
- TGI (NCI/ADR-RES ovarian): 54.7 µM
- TGI (HCC-2998 colon): 22.2 µM
- TGI (SK-MEL-5 melanoma): 37.8 µM
- TGI (A498 renal): 99 µM
- TGI (MOLT-4 leukemia): > 73.3 µM
- TGI (OVCAR-3 ovarian): 44.8 µM
- TGI (CAKI-1 renal): 31.5 µM
- TGI (SNB-75 CNS): > 96.2 µM
- TGI (IGROV1 ovarian): 59.8 µM
- TGI (HL-60(TB) leukemia): > 57.7 µM

SMILES: COc1ccc(C(=O)Cc2cc(OC)ccc2OC)cc1
- TGI (HCC-2998 colon): > 100 µM
- TGI (SK-MEL-5 melanoma): > 100 µM
- TGI (A498 renal): > 100 µM
- TGI (MOLT-4 leukemia): > 100 µM
- TGI (OVCAR-3 ovarian): > 100 µM
- TGI (CAKI-1 renal): > 100 µM
- TGI (SNB-75 CNS): 60.1 µM
- TGI (IGROV1 ovarian): > 100 µM
- TGI (HL-60(TB) leukemia): > 100 µM

SMILES: CC(C)=CCN(N=O)c1ncnc2nc[nH]c12
- TGI (NCI/ADR-RES ovarian): > 100 µM
- TGI (HCC-2998 colon): > 100 µM
- TGI (SK-MEL-5 melanoma): > 100 µM
- TGI (A498 renal): > 100 µM
- TGI (MOLT-4 leukemia): > 100 µM
- TGI (OVCAR-3 ovarian): > 100 µM
- TGI (CAKI-1 renal): > 100 µM
- TGI (SNB-75 CNS): > 100 µM
- TGI (IGROV1 ovarian): > 100 µM
- TGI (HL-60(TB) leukemia): > 100 µM
